From patent US9499790B2, “Method for promoting differentiation of pluripotent stem cells into cardiac muscle cells” (Kyoto University, priority 2010, dated 2016) come the findings set out here.

The structures appear in SMILES notation.

Common to all, as to format: cell-based
One assay deals with Human iPS (IMR90-1). Kind of assay: Number of beating colonies of cardiac muscle cells. The conditions noted are these: KY02111 5 μM during day 4 to 14. How it is done: The effect of promoting differentiation of each of the ES/iPS cells into cardiac muscle cells were confirmed for N11474 and KY02111 with the GFP expression level and number of beating colonies used as the indicators. Human ES cell line (Kh-1 line) (Suemori, H., et al., Efficient establishment of human embryonic stem cell lines and long-term maintenance with stable karyotype by enzymatic bulk passage. Biochem Biophys Res Commun. 345(3), 926-32 (2006)) (incorporated herein by reference) was seeded in a 6-well plate (Asahi Glass/5816-006: Ezview culture plate) in 1.2×10^6 cells/well and cultured for 22 days, with BMP4 (10 ng/ml) added during day 0 to 4 of culture and N11474 (10 μM) or KY02111 (5 μM) added during day 4 to 14 of culture. […] KY02111 (5 μM) was added for 3 days during day 6 to 9 of cardiac muscle cell differentiation culture and the beating colonies of cardiac muscle cells were analyzed at day 9. […] The effect of BIO, a Wnt signaling activator, on the effect of promoting cardiac muscle cell differentiation of KY02111, XAV939 and IWP2 was analyzed. […] The synergistic effects between KY02111 and a known Wnt signaling inhibitor XAV939 or IWP2 in the promotion of cardiac muscle cell differentiation were analyzed.

Assay [1] relates to Wnt signaling target genes in human iPS cells. Kind of assay: Gene expression analysis by DNA array and quantitative polymerase chain reaction. The arrangement: expressions of genes by DNA array (HOXA1, MSGN1, NKD1, T, TNFRSF11B, DKK1, DKK4, CDX2, MSX1, NODAL, FGF4 and others): dose or concentration left out as unconfirmed. How it is done:
(in the order of the genes whose expression were reduced most 12 hours later) HOXA1, MSGN1, NKD1, T, TNFRSF11B, DKK1, DKK4, CDX2, MSX1, NODAL, FGF4, PAPPA, PRRX1, LRAT, CYP1B1, SLC34A2, AXIN2, LGL1, SPS, MIXL1, APCDD1 and DSEL. […] The analyzed genes were as follows: MSGN1, HOXA1; T, MIXL1; Dkk1, AXIN2; NODAL and FGF4 (all known as Wnt signaling target genes).

The subject of the next assay is Monkey ES cells. Put plainly: Cardiac muscle cell differentiation of monkey ES cells, 6-well plate, GFP expression observed at day 14. From the text:
In the same manner as Example 2, the effects of promoting cardiac muscle cell differentiation were compared among KY02111 and N11474, known Wnt signaling inhibitors (IWP2, XAV939 and IWR1), proteins known to be effective in promoting cardiac muscle cell differentiation (G-CSF, IGFBP4, Dkk1 and cytokines (a mixture of bFGF, BMP4, VEGF, DKK1 and Activin A)).
The effect of BIO, a Wnt signaling activator, on the effect of promoting cardiac muscle cell differentiation of KY02111, XAV939 and IWP2 was analyzed. […]

The test system of the next assay is mouse ES cells (R1). Kind of assay: Number of beating colonies of cardiac muscle cells. The conditions noted are these: KY02111 5 μM during day 6 to 9, analyzed at day 9. The protocol:
(§1) The effect of promoting differentiation of each of the ES/iPS cells into cardiac muscle cells were confirmed for N11474 and KY02111 with the GFP expression level and number of beating colonies used as the indicators. Human ES cell line (Kh-1 line) (Suemori, H., et al., Efficient establishment of human embryonic stem cell lines and long-term maintenance with stable karyotype by enzymatic bulk passage. Biochem Biophys Res Commun. 345(3), 926-32 (2006)) (incorporated herein by reference) was seeded in a 6-well plate (Asahi Glass/5816-006: Ezview culture plate) in 1.2×10^6 cells/well and cultured for 22 days, with BMP4 (10 ng/ml) added during day 0 to 4 of culture and N11474 (10 μM) or KY02111 (5 μM) added during day 4 to 14 of culture. Human iPS cell lines (253G1, IMR90-1, IMR90-4 and RCHIPC0003) (Takahashi, K., et al., Induction of pluripotent stem cells from adult human fibroblasts by defined factors. Cell. 131(5), 861-72 (2007); Yu, J., et al., Induced pluripotent stem cell lines derived from human somatic cells. Science. 318(5858), 1917-20 (2007)) (these references are herein incorporated by reference) were cultured for the cardiac muscle cell differentiation in the same manner as for the human ES cells. The cardiac muscle cells from mouse ES cells (R1) were differentiated in accordance with the method described in the reference (Transient inhibition of BMP signaling by Noggin induces cardiomyocyte differentiation of mouse embryonic stem cells. Yuasa S, et al. Nat. Biotechnol. 2005 May; 23(5): 607-11; incorporated herein by reference). KY02111 (5 μM) was added for 3 days during day 6 to 9 of cardiac muscle cell differentiation culture and the beating colonies of cardiac muscle cells were analyzed at day 9. Monkey ES cells (CMK6.4) were cultured for cardiac muscle cell differentiation in the same manner as in the above (2).

For the next assay, the system named is Human iPS (253G1). Kind of assay: Number of beating colonies of cardiac muscle cells. The conditions noted are these: KY02111 5 μM during day 4 to 14. The protocol:
as §1

Another assay has as its system Monkey ES cells (CMK6.4). Put plainly: Number of beating colonies of cardiac muscle cells. The note with it: Monkey ES (CMK6.4). The protocol:
as §1

A further assay relates to Human iPS (RCHIPC0003). Kind of assay: Number of beating colonies of cardiac muscle cells. The note with it: KY02111 5 μM during day 4 to 14. The protocol: as §1
The subject of assay [2] is Human ES cell line (Kh-1 line). Kind of assay: Cardiac muscle cell differentiation (GFP expression level, number of beating colonies). The conditions noted are these: N11474 10 μM during day 4 to 14. The protocol:
as §1, with “The cardiac muscle cells from mouse ES cells (R1) were differentiated in accordance with the method described in the reference (Transient inhibition of BMP signaling by Noggin induces cardiomyocyte differentiation of mouse embryonic stem cells. Yuasa S, et al. Nat. Biotechnol. 2005 May; 23(5): 607-11; incorporated herein by reference).” left out, “Monkey ES cells (CMK6.4) were cultured for cardiac muscle cell differentiation in the same manner as in the above (2).” left out

Assay [3] relates to monkey ES cell line (CMK 6.4 cynomolgus monkey ES cells). Kind of assay: Screening of library compounds: GFP expression under alpha-MHC promoter, 96-well plates. The conditions noted are these: about 1 to 5 μM compound/well during day 6 to 14; HCS system. The protocol: A vector expressing green fluorescent protein (GFP) under control of promoter of α-MHC gene, a marker of cardiac muscle cell differentiation, was introduced into monkey ES cell line (CMK 6.4 cynomolgus monkey ES cells) and the cells were seeded on 96-well culture plates (Greiner/655090: 96 well FIA black plate) in 5.0×10^3 cells/well, and cultured for 14 days in an IMDM-based differentiation medium for cardiac muscle cells (200 ml. IMDM (Sigma 13390) containing 50 ml bovine fetal serum (GIBCO 10099-141), 2.5 ml MEM non-essential amino acid solution (Sigma M7145), 2.5 ml penicillin-streptomycin (GIBCO 15140), 2.5 ml 200 mM L-glutamine, 2 μl 2-mercaptoethanol (Sigma M7522), 255 μl 5N NaOH). During day 6 to 14 of culture, 9,600 library compounds were added into separate wells (about 1 to 5 μM compound/well). Then, at […] of culture, GFP expression level was determined by using HCS (high contents screening) system (Molecular device/MetaMorph imaging system).

A further assay has as its system Human iPS (IMR90-4). Put plainly: Number of beating colonies of cardiac muscle cells. The conditions noted are these: N11474 10 μM during day 4 to 14. How it is done: as §1
[4] abbreviates: 10 μM during day 4 to 10, GFP at day 14.
Setting [5] is: KY02111 5 μM during day 4 to 8, singly.

With `COc1ccc(CCC(=O)Nc2nc3ccc(Cl)cc3s2)cc1OC` [KY02111, 2-(3-(3,4-dimethoxyphenyl)propanamide)-6-chlorobenzothiazole], the “Beating cardiac muscle cell differentiation efficiency (Control (DMSO) = 100%)” value is recorded as 6100% (KY02111) with Human iPS (IMR90-1); 200% (KY02111) in the assay on mouse ES cells (R1); 1500% (KY02111) with Human iPS (253G1); 1850% (KY02111) with Monkey ES cells (CMK6.4); 100% (KY02111) with Human iPS (RCHIPC0003). Further, the “expressions of genes by DNA array (HOXA1, MSGN1, NKD1, T, TNFRSF11B, DKK1, DKK4, CDX2, MSX1, NODAL, FGF4 and others)” value in assay [1] (12 hours and 24 hours after the addition) is recorded as “reduced”. Moreover, the “expressions of MSGN1, HOXA1, T, MIXL1, Dkk1, AXIN2, NODAL and FGF4 (Wnt signaling target genes) by qPCR” value in assay [1] (FIG. 9) was “reduced”. In assay [1] (confirmation of DNA array, FIG. 8), the “expression of MSGN1, HOXA1, T, Dkk1 and FGF4 by qPCR” value is “same results as the DNA array analysis”. Also, the “increase in the GFP expression level” value with Monkey ES cells (setting [4]) was 7400%. The “effect of promoting cardiac muscle cell differentiation (GFP expression), comparison with Wnt signaling inhibitors and proteins” value with Monkey ES cells (10 μM during day 4 to 10, GFP at day 14, FIG. 10) is recorded as “strongest effect of promoting cardiac muscle cell differentiation”. In addition, in the assay on Monkey ES cells (BIO 5 μM added together with the compound during day 4 to 10, GFP at day 14), the “effect of BIO on the compound's effect of cardiac muscle cell differentiation (GFP expression)” value is given as “did not inhibit”. Moreover, the “increase in the GFP expression level versus Control (DMSO)” value in the assay on Monkey ES cells (setting [5]) is recorded as “about 30 times”. Moreover, in the assay on Monkey ES cells (setting [5]), the “proportion of beating colonies” value is given as “about 30%”. Also, the “ratio of number of GFP colonies” value in the assay with Monkey ES cells (setting [5]) was around 73%.
Regarding `COc1ccc2nc(NC(=O)Cc3ccc(OC)c(OC)c3)sc2c1` [N11474], the entries for the “Beating cardiac muscle cell differentiation efficiency (Control (DMSO) = 100%)” value (in [2] (Human ES (Kh-1)); in the assay with Human iPS (IMR90-4)) were 1100% (N11474) and 4000% (N11474), respectively. Besides, the GFP expression level entry in assay [2] (at day 14 and after of culture, FIG. 6) is listed as “significant increase”; in assay [3] it was “high GFP expression levels”. Further, the “increase in the GFP expression level” value in the assay with Monkey ES cells (setting [4]) is 1000%.
